Entries after “also recorded” stand apart in the source; their conditions may differ.
Tests used:
[1] = target: HDAC1 (Homo sapiens, UniProt Q13547); assay: Inhibition of recombinant HDAC1; type: biochemical; conditions: read-out: IC50 (nM) HCAC1
[2] = tested on: acetylated alpha-tubulin and acetylated histone H3 in LNCaP (human prostate cancer cells); assay: Accumulation of acetylated proteins in LNCaP cells (western blot); type: cell-based; conditions: LNCaP cells, FIG. 2
Method: FIG. 2. Blot showing accumulation of acetylated alpha-tubulin and acetylated histone H3 in LNCaP (human prostate cancer cells) cultured with compounds 8 or 11. GADPH used as loading control.
FIG. 5. Western blots of acetylated alpha-tubulin (Acet-Tub) and acetylated histone H3 (Acet-H3) in HFS (normal) and LNCaP (transformed) cells treated with compound 8 at 8, 16, 32, and 64 μM for 24 h. Western blots of GAPDH and total histone H3 (Total-H3) are loading controls.
(§1) Recombinant HDAC1 and HDAC6 are used to evaluate the selective inhibitory potency of each compound. Cell based assays: Normal cells (Human Foreskin Fibroblast cells), LNCaP (human prostate cancer cells), MCF-7 (human breast cancer cells, A549 (human adenocarcinoma of lung cells) and ARP-1 (human multiple myeloma cells) are used in these assays. Cells were cultured for up to 72 hr without and with the potential HDAC6-selective inhibitor. SAHA was used as a control. Cell number and cell viability were determined by enumeration. Proteins were extracted from cells and assayed for accumulation of acetylated tubulin and acetylated histones. All methods are described in Namdar et al., PNAS, 2010, 107:20003-8. In vivo animal studies: Potential HDAC6 inhibitor compounds are further assayed by administration to mice for up to 5 days with daily injections. Animals are sacrificed and tissues are analyzed for accumulation of acetylated tubulin and acetylated histones.

[3] = target: T1, HDAC6 (Homo sapiens, UniProt Q9UBN7); assay: Inhibition of recombinant HDAC6; conditions: for Ratio: HDAC1/HDAC6: ratio of IC50 HDAC1 to IC50 HDAC6
T1 sequence (Q9UBN7 1-1215): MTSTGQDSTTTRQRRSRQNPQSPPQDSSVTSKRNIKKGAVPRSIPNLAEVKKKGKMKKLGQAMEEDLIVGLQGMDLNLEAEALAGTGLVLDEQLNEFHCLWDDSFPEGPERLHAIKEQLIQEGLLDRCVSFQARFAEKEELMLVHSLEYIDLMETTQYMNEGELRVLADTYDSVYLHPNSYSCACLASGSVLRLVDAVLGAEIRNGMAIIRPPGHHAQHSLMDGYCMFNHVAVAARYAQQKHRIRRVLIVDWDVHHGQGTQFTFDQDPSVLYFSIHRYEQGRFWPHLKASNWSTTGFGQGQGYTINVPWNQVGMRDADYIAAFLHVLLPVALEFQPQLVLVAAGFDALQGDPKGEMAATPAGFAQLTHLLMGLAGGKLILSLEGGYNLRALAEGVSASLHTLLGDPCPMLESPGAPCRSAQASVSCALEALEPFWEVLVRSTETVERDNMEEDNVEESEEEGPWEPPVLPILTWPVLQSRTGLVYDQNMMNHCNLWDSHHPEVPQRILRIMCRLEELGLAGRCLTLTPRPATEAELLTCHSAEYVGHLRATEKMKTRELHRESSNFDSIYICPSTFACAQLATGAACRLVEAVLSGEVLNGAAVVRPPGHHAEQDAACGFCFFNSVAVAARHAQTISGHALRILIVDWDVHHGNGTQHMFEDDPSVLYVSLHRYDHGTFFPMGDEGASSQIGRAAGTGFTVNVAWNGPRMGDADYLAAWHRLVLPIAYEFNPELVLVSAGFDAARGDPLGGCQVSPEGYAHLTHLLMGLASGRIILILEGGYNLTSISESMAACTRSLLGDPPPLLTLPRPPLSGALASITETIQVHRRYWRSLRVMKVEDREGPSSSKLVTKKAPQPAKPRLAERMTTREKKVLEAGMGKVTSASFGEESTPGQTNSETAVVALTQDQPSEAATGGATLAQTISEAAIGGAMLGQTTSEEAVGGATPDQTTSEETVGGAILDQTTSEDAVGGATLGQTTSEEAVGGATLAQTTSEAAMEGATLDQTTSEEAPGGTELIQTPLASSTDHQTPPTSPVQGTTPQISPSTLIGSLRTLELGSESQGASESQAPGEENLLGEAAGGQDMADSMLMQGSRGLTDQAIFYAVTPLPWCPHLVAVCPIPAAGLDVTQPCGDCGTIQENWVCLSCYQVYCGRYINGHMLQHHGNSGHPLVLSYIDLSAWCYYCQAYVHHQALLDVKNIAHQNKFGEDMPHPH

[4] = tested on: acetylated alpha-tubulin and acetylated histone H3 in LNCaP (human prostate cancer cells); conditions: SAHA; literature cited, cells not given; cited from earlier work
[5] = tested on: LNCaP (human prostate adenocarcinoma) cells; assay: Cell growth and viability of LNCaP cells; type: cell-based; conditions: SAHA control
Method: FIG. 3. Cell growth of HFS (normal) and LNCaP (transformed) cells treated with compound 8 over 72 h.
FIG. 4. Cell viability of HFS (normal) and LNCaP (transformed) cells treated with compound 8 over 72 h.
as §1
The effect of compound 8 on the cell growth and viability of normal (HFS, human foreskin fibroblast) and transformed (LNCaP, human prostate adenocarcinoma) cells cultured with 8, 16, 32 or 64 μM HPB for up to 72 h was evaluated.

[6] = tested on: acetylated alpha-tubulin and histones in CWR22 tumors and spleen; assay: Acetylated lysine patterns in CWR22 tumors and spleen; type: in vivo, nude mice
Text: Tumors and spleen are removed from the animals, and histones and proteins are extracted for the detection of acetylated lysine patterns.

[7] = tested on: androgen-dependent CWR22 human prostate cancer xenograft; assay: CWR22 human prostate cancer xenograft in nude mice; type: in vivo; conditions: 21 days; daily 300 mg/kg compound 8 or weekly 3 mg/kg etoposide alone

Chain of HDAC1 (Q13547 whole entry): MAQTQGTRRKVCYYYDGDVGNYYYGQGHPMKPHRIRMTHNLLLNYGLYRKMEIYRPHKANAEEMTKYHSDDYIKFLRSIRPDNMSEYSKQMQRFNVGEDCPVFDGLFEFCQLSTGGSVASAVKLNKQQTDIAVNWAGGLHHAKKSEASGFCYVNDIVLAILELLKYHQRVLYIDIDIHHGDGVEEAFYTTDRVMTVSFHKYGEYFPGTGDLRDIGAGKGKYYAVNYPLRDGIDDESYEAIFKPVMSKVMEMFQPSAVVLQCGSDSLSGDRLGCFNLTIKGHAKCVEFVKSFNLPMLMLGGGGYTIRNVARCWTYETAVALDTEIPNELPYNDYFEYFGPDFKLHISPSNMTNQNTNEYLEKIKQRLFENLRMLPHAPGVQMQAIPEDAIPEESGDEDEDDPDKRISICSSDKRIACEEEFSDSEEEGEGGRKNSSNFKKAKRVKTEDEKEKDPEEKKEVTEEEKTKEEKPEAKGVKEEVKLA

O=C(NO)c1ccc(CN(CCO)C(=O)c2ccccc2)cc1 [Compound 11, N-hydroxy-4-((N-(2-hydroxyethyl)-2-benzamido)methyl)benzamide]
IC50 [1]: 270 nM
accumulation of acetylated histones (H3) [2]: did not cause accumulation of actylated histones; also recorded: without induction of H3 acetylation
accumulation of acetylated α-tubulin [2]: caused the accumulation of acetylated α-tubulin; also recorded: significant levels of tubulin acylation were present
IC50 [3]: 11 nM
Ratio: HDAC1/HDAC6 [3]: 24.54

O=C(CCCCCCC(=O)Nc1ccccc1)NO [SAHA, suberoylanilide hydroxamic acid, reference compound]
accumulation of acetylated alpha-tubulin [4]: induced the accumulation of acetylated alpha-tubulin and histone H3
accumulation of acetylated histone H3 [4]: induced the accumulation of acetylated alpha-tubulin and histone H3
death of LNCaP cells [5]: kills LNCaP cells
Ratio: HDAC1/HDAC6 [3]: 3.09

O=C(CCCCCCC(=O)Nc1ccc([C@H]2O[C@@H](CSc3nc(-c4ccccc4)c(-c4ccccc4)o3)C[C@@H](c3ccc(CO)cc3)O2)cc1)NO [Tubacin, reference compound]
IC50 [1]: 193 nM

COc1cc([C@@H]2c3cc4c(cc3[C@@H](O[C@@H]3O[C@@H]5CO[C@@H](C)O[C@H]5[C@H](O)[C@H]3O)[C@H]3COC(=O)[C@H]23)OCO4)cc(OC)c1O [etoposide, reference compound]
accumulation of histones in tumors, single agent ([6]; mice injected with compound 8 alone or etoposide): Increased levels of accumulation of histones
accumulation of acetylated alpha-tubulin in CWR22 tumors and spleen, single agent ([6]; mice treated with compound 8 or etoposide): increased accumulation of acetylated alpha-tubulin
growth of established CWR22 tumors, single agent [7]: no significant suppression of the growth
weight loss, single agent [7]: no weight loss
